The source made the active and inactive calls.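 Rule for the calls: active = fitted concentration giving half of the maximal binding block below 66 µM; inactive = the rest.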

For the first assay, the target named is anti-desmoglein 3 scFv antibody binding to human desmoglein 3 (DSG3). As to the kind of experiment: blockers of pemphigus antibody–desmoglein 3 interaction – biochemical, DSG3-coupled beads, scFv-GFP, flow cytometry, Cherry Pick 1, dose response (AID 602251).
Conditions: not given
A general note: A flow cytometer gives signals particle by particle.
Broadly, the EC50 is the concentration giving half of the maximal effect. With `CN1C(=CC=C2C=C(I)C(=O)C(I)=C2)C(C)(C)c2ccccc21`, the 50% effective concentration (EC50) was 15.7 µM.

Consider `Cc1ccc(C(C)C)c(OCC(=O)Nc2ccc(N3CCN(S(C)(=O)=O)CC3)cc2)c1`, for which the EC50 was 20.9 µM.

As for `O=C(O)c1cccc(-n2cccc2/C=C2/NC(=O)N(c3ccc(Cl)cc3)C2=O)c1`, the EC50 was 11.7 µM.

For the compound `Nn1c(SCC(=O)Nc2cc(C(F)(F)F)ccc2Cl)nncc1=O`, the EC50 is 29.6 µM.

`CCOc1ccc2c(ccc(/C=C/c3cc(C)c4cccnc4c3O)[n+]2C)c1`: the EC50 was 1.08 µM.

For `Nc1ccc2nc(-c3cccc(-c4nc5ccc(N)cc5[nH]4)c3)[nH]c2c1`, the EC50 was 65.2 µM.

With `Nc1ccc2nc3c(=O)[nH]c(=S)[nH]c3nc2c1`, the EC50 is 39.1 µM.

In the case of `COc1ccc2cc(-c3cc(C(=O)OCC(=O)NC4CCS(=O)(=O)C4)c4ccccc4n3)ccc2c1` (centres undefined), the EC50 is 19.2 µM.

`C=CCn1c(O)c(C2=c3ccccc3=NC2=O)s/c1=N/c1nccs1`: the EC50 is 39.6 µM.

For the compound `CCC(=C/c1sc2ccc3ccccc3c2[n+]1C)/C=C1\Sc2ccc3ccccc3c2N1C`, the EC50 is 25.9 µM.

Take `O=C(Nc1ccc(N2CCOCC2)cc1)c1ccc2nc(-c3ccco3)c(-c3ccco3)nc2c1`: the EC50 is 25.4 µM.

For the compound `COc1ccccc1NC(=O)Cn1nnc(-c2ccccc2NC(=O)c2cc3ccccc3oc2=O)n1`, the EC50 is 25.8 µM.

`CC(=O)Nc1cc(=O)c2cccnc2[nH]1`: the EC50 was 25.4 µM.

Staying with this assay, now noted: at 66.1 µM (top of the series).
Consider `Cc1ccc2nc(NC(=O)c3ccc4ncsc4c3)sc2c1`, for which the “binding response, lower = inhibition” value was “inactive”.

For the compound `COc1cc(C(C(=O)NC2CCCCC2)N(CCN2CCOCC2)C(=O)C2COc3ccccc3O2)cc(OC)c1OC` (centres undefined), the “binding response, lower = inhibition” value was “inactive”.

As to `COc1ccc(-c2cn3c(C)c(C(=O)Nc4cccc(NC(C)=O)c4)sc3n2)cc1`, the “binding response, lower = inhibition” value was “inactive”.

For the compound `CCC(C)n1cnc2c(c1=O)c1nc3ccccc3nc1n2-c1ccc2c(c1)OCCO2` (centres undefined), the “binding response, lower = inhibition” value was “inactive”.

As to `COc1ccccc1C(=O)Nc1ccc(Oc2ncnc3sc(-c4ccccc4)cc23)cc1`, the “binding response, lower = inhibition” value is “inactive”.

Take `COc1ccc(O)c(/C=N/n2c(-c3ccco3)csc2=Nc2cccnc2)c1`: the “binding response, lower = inhibition” value was “inactive”.

As to `COc1ccc(NC(=O)c2ccc3c(c2)C(=O)N(Cc2cccnc2)C3=O)c(OC)c1`, the “binding response, lower = inhibition” value is “inactive”.

`COc1ccccc1CNC(=O)COC(=O)c1ccc(S(=O)(=O)N2CCCCC2)cc1`: the “binding response, lower = inhibition” value is “inactive”.

On to `COC(=O)c1sc(NC(=O)c2cc(-c3ccccc3)nc3ccccc23)c(C#N)c1C`, for which the “binding response, lower = inhibition” value is “inactive”.

Take `CCOc1ccc(S(=O)(=O)N2CCN(C(=O)c3ccccc3Cc3ccccc3)CC2)cc1`: the “binding response, lower = inhibition” value is “inactive”.

On to `CSc1nc(SCC(=O)O)c2sc3nc(-c4ccccc4)c4c(c3c2n1)CCC4`, for which the “binding response, lower = inhibition” value was “inactive”.

In the case of `COc1ccc(OC)c(NC(=O)c2nc(-c3ccccc3)oc2C)c1`, the “binding response, lower = inhibition” value was “inactive”.

`CCCn1c(C)nc2c(c1=O)c1nc3ccccc3nc1n2-c1ccccc1`: the “binding response, lower = inhibition” value was “inactive”.

As for `COc1ccc(Cl)cc1NC(=O)CSc1nc(NS(=O)(=O)c2ccc(C)cc2)cc(=O)[nH]1`, the “binding response, lower = inhibition” value was “inactive”.

In the case of `Cc1ccc(O)c(NC(=O)CSc2ccc(Cl)cc2)c1`, the “binding response, lower = inhibition” value was “inactive”.

In the case of `CN(C(=O)COC(=O)c1ccc(-c2ccc(O)cc2)cc1)C1CCS(=O)(=O)C1` (centres undefined), the “binding response, lower = inhibition” value is “inactive”.

Regarding `O=C(NC1CCCC1)C(c1ccc(O)cc1)N(CC1CCCO1)C(=O)C1COc2ccccc2O1` (centres undefined), the “binding response, lower = inhibition” value is “inactive”.

For the compound `O=C(Cc1ccccc1)Nc1ccc(NC(=O)c2cccs2)cc1Cl`, the “binding response, lower = inhibition” value was “inactive”.

Turning to `Nc1cc(-c2ccc(Br)cc2)nn1S(=O)(=O)c1ccccc1`, the “binding response, lower = inhibition” value is “inactive”.

For `O=C(CSc1ccsc1[N+](=O)[O-])Nc1cc(F)ccc1F`, the “binding response, lower = inhibition” value was “inactive”.

`O=C(Nc1ccc(Nc2ccccc2)cc1)c1ccc(Br)cc1`: the “binding response, lower = inhibition” value is “inactive”.

Regarding `O=C(NCCCN1CCOCC1)c1cc(-c2cccc(Br)c2)nc2ccccc12`, the “binding response, lower = inhibition” value was “inactive”.

As for `COc1ccc(Cl)c(NC(=O)NCCN2CCN(c3ccccc3)CC2)c1`, the “binding response, lower = inhibition” value was “inactive”.

With `Cc1cc(NC(=O)CSc2nnc(-c3c[nH]c4ccccc34)n2-c2ccc(F)cc2)no1`, the “binding response, lower = inhibition” value was “inactive”.

For the compound `Cn1c2ccccc2c(=O)c2c(=O)n(Cc3ccco3)c(COc3ccccc3)nc21`, the “binding response, lower = inhibition” value was “inactive”.

As to `COc1ccc(NC(=O)Cn2nnc(C(=O)NCc3ccccc3)c2N)cc1Cl`, the “binding response, lower = inhibition” value is “inactive”.

For the compound `COCCCNC(=O)c1c(N)n(-c2cccc(S(N)(=O)=O)c2)c2nc3ccccc3nc12`, the “binding response, lower = inhibition” value is “inactive”.

In the case of `CS(=O)(=O)c1ccc2nc(NC(=O)Nc3ccccc3F)sc2c1`, the “binding response, lower = inhibition” value was “inactive”.

Consider `COc1ccccc1CNC(=O)COC(=O)c1ccc(S(=O)(=O)N2CCCC2)cc1`, for which the “binding response, lower = inhibition” value was “inactive”.

For `Cc1ccc(NC(=O)c2sc(N)nc2-c2ccc([N+](=O)[O-])cc2)cc1C`, the “binding response, lower = inhibition” value was “inactive”.

In the case of `COc1ccc(NC(=O)c2ccc3c(c2)S(=O)(=O)c2ccccc2C3=O)cc1`, the “binding response, lower = inhibition” value was “inactive”.

With `CCOc1ccc(NC(=O)c2ccc(NC(=O)CSc3nc4ccccc4c(=O)[nH]3)cc2)cc1`, the “binding response, lower = inhibition” value was “inactive”.

For `O=C(Nc1cccc2ccccc12)N1CCN(c2ccccc2)CC1`, the “binding response, lower = inhibition” value was “inactive”.

In the case of `COc1ccc(C(C(=O)NC2CCCCC2)N(CC2CCCO2)C(=O)C2COc3ccccc3O2)cc1OC` (centres undefined), the “binding response, lower = inhibition” value was “inactive”.

Regarding `Cc1nc2ccccc2nc1OCC(=O)Nc1ccc2ccccc2c1`, the “binding response, lower = inhibition” value is “inactive”.

Regarding `Cc1c(OCC(=O)NCc2ccccn2)ccc2c(-c3ccccc3)cc(=O)oc12`, the “binding response, lower = inhibition” value is “inactive”.

Take `COc1ccc(NC(=O)c2ccc3c(c2)C(=O)N(Cc2cccnc2)C3=O)cc1`: the “binding response, lower = inhibition” value was “inactive”.

For the compound `Nc1c(C(=O)c2ccccc2)oc2ccc([N+](=O)[O-])cc12`, the “binding response, lower = inhibition” value is “inactive”.

Take `CC(=O)c1c(C)n(-c2ccc(Cl)cc2)c2ccc(O)cc12`: the “binding response, lower = inhibition” value is “inactive”.

Regarding `COc1cc(OC)cc(C(=O)OCc2cc3ccccc3[nH]c2=O)c1`, the “binding response, lower = inhibition” value is “inactive”.

Turning to `CN(C)Cc1cc(O)c(CN(C)C)cc1O`, the “binding response, lower = inhibition” value is “inactive”.

Regarding `COC(=O)c1cc(/C=C/c2ccccc2)on1`, the “binding response, lower = inhibition” value is “inactive”.

Turning to `O=C(c1cc2cc3ccc(Cl)cc3nc2o1)N1CCN(Cc2ccc3c(c2)OCO3)CC1`, the “binding response, lower = inhibition” value was “inactive”.

Consider `CC(C)(C)NS(=O)(=O)c1ccc(NC(=O)c2cc(-c3ccccc3)nc3ccccc23)cc1`, for which the “binding response, lower = inhibition” value is “inactive”.

Consider `O=C(Nc1ccc2c(c1)OCO2)C1CCN(c2ccc(S(=O)(=O)N3CCOCC3)cc2)CC1`, for which the “binding response, lower = inhibition” value is “inactive”.

Take `O=C(Nc1ccc(S(=O)(=O)NCc2ccccc2)cc1)C1CCCCC1`: the “binding response, lower = inhibition” value was “inactive”.

These data come from PubChem BioAssay AID602251 (NMMLSC, 2012).
